Test results: ChEMBL document CHEMBL5338769, “Discovery of Norisoboldine Analogue III11 as a Novel and Potent Aryl Hydrocarbon Receptor Agonist for the Treatment of Ulcerative Colitis” (J Med Chem, 2023)
Activity calls are given as the source filed them. The calls are words filed in the database; no cut-off is given here.

Key:
Mus musculus [1] = test: Anti-colitis activity against DSS-induced ulcerative colitis C57BL/6 mouse model assessed as increase in IL-10 mRNA level by measuring fold change at 10 mg/kg, po administered once a day for 10 days by qRT-PCR analysis; assay type: functional; conditions: time 10 day
[2] = biological target: T1, Aryl hydrocarbon receptor (Mus musculus, UniProt P30561); test: Binding affinity to AhR in mouse EL4 cells assessed as thermal stabilization at 3 uM at 37 to 67 degreeC incubated for 24 hrs thermal shift assay based Western blot analysis; assay type: cell-based; conditions: el4, 24 h
T1 sequence (P30561 whole entry): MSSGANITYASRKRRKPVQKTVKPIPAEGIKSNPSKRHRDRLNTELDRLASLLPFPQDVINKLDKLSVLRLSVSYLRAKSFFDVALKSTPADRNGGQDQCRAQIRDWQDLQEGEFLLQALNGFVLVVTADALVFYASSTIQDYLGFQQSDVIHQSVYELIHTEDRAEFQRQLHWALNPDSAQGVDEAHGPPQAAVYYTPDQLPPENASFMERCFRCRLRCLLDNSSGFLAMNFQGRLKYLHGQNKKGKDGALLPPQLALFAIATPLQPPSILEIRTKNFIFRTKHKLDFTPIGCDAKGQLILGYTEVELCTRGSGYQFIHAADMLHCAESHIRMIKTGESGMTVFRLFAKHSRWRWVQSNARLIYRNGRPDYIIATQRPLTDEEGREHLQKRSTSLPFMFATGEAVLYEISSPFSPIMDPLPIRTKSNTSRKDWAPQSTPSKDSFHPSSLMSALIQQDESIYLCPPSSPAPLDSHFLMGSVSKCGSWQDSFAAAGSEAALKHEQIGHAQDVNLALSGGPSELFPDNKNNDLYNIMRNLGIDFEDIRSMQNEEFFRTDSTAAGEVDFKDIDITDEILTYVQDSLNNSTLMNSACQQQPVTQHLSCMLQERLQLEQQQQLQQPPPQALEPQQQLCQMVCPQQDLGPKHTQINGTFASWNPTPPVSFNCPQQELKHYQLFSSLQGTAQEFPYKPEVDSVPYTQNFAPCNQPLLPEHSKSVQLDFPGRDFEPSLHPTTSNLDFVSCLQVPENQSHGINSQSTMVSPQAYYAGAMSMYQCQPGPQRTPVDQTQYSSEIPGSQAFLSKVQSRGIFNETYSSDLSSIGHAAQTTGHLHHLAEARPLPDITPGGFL

Mus musculus [3] = test: Anti-colitis activity against DSS-induced ulcerative colitis C57BL/6 mouse model assessed as recovery of colon length at 20 mg/kg, po administered once a day for 10 days; assay type: functional, organism-based; conditions: time 10.0 day
Mus musculus [4] = test: Anti-colitis activity against DSS-induced ulcerative colitis C57BL/6 mouse model assessed as amelioration of epithelial change score by measuring erosion in colon at 10 to 20 mg/kg, po administered once a day for 10 days by H&E staining based histopathological analysis; assay type: functional, organism-based; conditions: dose 10-20 mg/kg, time 10.0 day
Mus musculus [5] = test: Anti-colitis activity against DSS-induced ulcerative colitis C57BL/6 mouse model assessed as amelioration of mucosal architecture score by measuring granulation in colon at 10 to 20 mg/kg, po administered once a day for 10 days by H&E staining based histopathological analysis; assay type: functional, organism-based; conditions: dose 10-20 mg/kg, time 10.0 day
EL4 = test: Cytotoxicity against mouse EL4 cells assessed as inhibition of cell proliferation incubated for 72 hrs by MTT assay; assay type: functional, cell-based; conditions: EL4, 72 h
Mus musculus [6] = test: Anti-colitis activity against DSS-induced ulcerative colitis C57BL/6 mouse model assessed as increase in Foxp3 mRNA level at 20 mg/kg, po administered once a day for 10 days by qRT-PCR analysis; assay type: functional, organism-based; conditions: time 10.0 day
Mus musculus [7] = test: Anti-colitis activity in DSS-induced ulcerative colitis C57BL/6 mouse model assessed as increase in CD4+CD25+Foxp3+ Treg cell ratio in mesenteric lymph nodes at 10 mg/kg, po administered once a day for 10 days by flow cytometric analysis (reference value: 4.5 %); assay type: functional; conditions: time 10 day

SMILES: COc1cc2c3c(c1)-c1ccc(O)cc1CC3NCC2 (stereo not drawn)
- fold change (FC) (Mus musculus [1]): 1.26
- Activity [2]: Active
- Activity (Mus musculus [3]): Active
- Activity (Mus musculus [4]): Active
- Activity (Mus musculus [5]): Active
- IC50 (EL4): 28 µM
- Activity (Mus musculus [6]): Active
- Activity (Mus musculus [7]): 7.4%
